Results on nine compounds are retold here after patent publication US10793567B2, “Bicyclic inhibitors of histone deacetylase” (Rodin Therapeutics, Inc., priority 2017, dated 2020).

Data set [1] has as its target HDAC2 (Homo sapiens (Human), UniProt Q92769). Description: HDAC2 enzymatic inhibition assay in SY5Y cell lysate (HDAC-Glo 2). It counts as cell-based. As to conditions: SH-SY5Y cells, five hours incubation. As for the experimental part:
SH-SY5Y cells (Sigma) were cultured in Eagle's Modified Essential Medium supplemented with 10% fetal bovine serum and pen/strep. Twenty-four hours prior to compound dosing 20 uL of cells were plated in white 384 well plates at a density of 1,500 cells/well. Compounds were serially diluted in neat DMSO and then diluted 1:100 v/v into media without FBS and mixed. Media was removed from the plated cells and the diluted compounds in serum free media (1% v/v final DMSO) were added and incubated at 37.0 for five hours. Ten uL of HDAC-Glo 2 reagent with 0.1% Triton X-100 was then added, the plate was mixed and allowed to develop at room temperature for 100 minutes. Plates were then read with a Spectramax LMax luminometer employing a 0.4 s integration time. Dose response curves were constructed with normalized data where CI-994 at 100 uM was defined as 100% inhibition and DMSO alone as 0% inhibition.

Data set [2] deals with human megakaryocyte progenitors (CFU-Mk). Description: Human megakaryocyte progenitor CFC proliferation (CFU-Mk) in normal bone marrow. As to conditions: for IC50: Homo sapiens, 6-point dose response, top concentration 20 μM, read-out: CFU-Mk Total IC50; for % Control CFU-Mk Total @ 10 uM dose: 3-point dose response. The data set is classed as cell-based. As for the experimental part:
Compounds were tested to evaluate the potential effects on human megakaryocyte progenitor proliferation in the CFU-Mk assay. Clonogenic progenitors of the human megakaryocyte (CFU-Mk) lineage were assessed in a semi-solid, collagen-based matrix containing rhIL-3 (10 ng/mL), rhIL-6 (10 ng/mL) and rhTpo (50 ng/mL).
Normal human bone marrow light density cells (lot #0170525), derived from normal bone marrow (NorCal Biologics, California), were stored at −152° C. until required for the assay. On the day of the experiment, the cells were thawed rapidly, the contents of each vial was diluted in 10 mL of Iscove's modified Dulbecco's medium containing 10% fetal bovine serum (IMDM+10% FBS) and washed by centrifugation (approximately 1200 r.p.m. for 10 minutes, room temperature). The supernatant was discarded and the cell pellets resuspended in a known volume of IMDM+10% FBS. A cell count (3% glacial acetic acid) and viability assessment (trypan blue exclusion test) was performed for the bone marrow sample.
All compounds were used as solutions in DMSO at 10 mM. Two different dosing paradigms were used depending on the study, either a six point dose response with top concentration of 20 μM, or a three point dose response with a top concentration of 10 μM. In six point dose response studies, compounds were tested at six distinct concentrations (20, 6.7, 2.2, 0.74, 0.25 and 0.082 μM), with serial dilutions prepared from the 10 mM stock concentration to achieve concentrations of 6.7, 2.2, 0.74, 0.25 and 0.082 mM. When added to the collagen-based media at 1:1000 (v/v), the final desired test concentrations were achieved. In order to generate the 20 μM final concentration, 8 μL of the 10 mM stock was added to the appropriately labeled tube. For the three point dose response studies, serial dilutions were prepared from the stock concentration to achieve concentrations of 2 and 0.4 mM. When added to the collagen-based media at 1:1000 (v/v), the final test concentrations of 10, 2 and 0.4 μM were achieved.
Clonogenic progenitors of the human megakaryocytic (CFU-Mk) lineages were set up in the media formulation described above. All compounds were added to the medium to give the final desired concentrations (20, 6.67. 2.22, 0.74, 0.25, and 0.082 μM). Solvent control cultures (containing no compound but 0.2% DMSO), as well as a standard control (containing no compound and no DMSO), were also initiated.
Human megakaryocyte progenitor assays were initiated with 1.8×10^5 cells per culture (lot #0170525). Following 14-16 days in culture, the cultures were transferred from the 35 mm dishes to labeled glass slides, were fixed (methanol/acetone) and then stained using an anti-human CD41 antibody and an alkaline phosphate detection system according to manufacturers' instructions. The colonies were assessed microscopically and scored by trained personnel and divided into the following categories based on size; CFU-Mk (3-20), CFU-Mk (21-49), CFU-Mk (≥50).
The mean±1 standard deviation of three replicate cultures was calculated for the progenitors. Two-tailed standard t-tests were performed to assess if there was a difference in the number of colonies generated between solvent control and treated cultures. Due to the potential subjectivity of colony enumeration, a p value of less than 0.01 is deemed significant. To calculate the concentration of 50% inhibition of colony growth (IC50) for each compound, a dose response curve was generated plotting the log of the compound concentration versus the percentage of control colony growth using Graphpad Prism 7.
Megakaryocyte colony enumeration was performed by trained personnel. In addition, the distribution of colony types as well as general colony and cellular morphology was analyzed. The variance in colony number detected in replicate cultures was representative of the historical coefficient of variation for colony enumeration using these types of assays. […]

Some results are limits rather than exact numbers.

HDAC2, sequence (Q92769 whole entry): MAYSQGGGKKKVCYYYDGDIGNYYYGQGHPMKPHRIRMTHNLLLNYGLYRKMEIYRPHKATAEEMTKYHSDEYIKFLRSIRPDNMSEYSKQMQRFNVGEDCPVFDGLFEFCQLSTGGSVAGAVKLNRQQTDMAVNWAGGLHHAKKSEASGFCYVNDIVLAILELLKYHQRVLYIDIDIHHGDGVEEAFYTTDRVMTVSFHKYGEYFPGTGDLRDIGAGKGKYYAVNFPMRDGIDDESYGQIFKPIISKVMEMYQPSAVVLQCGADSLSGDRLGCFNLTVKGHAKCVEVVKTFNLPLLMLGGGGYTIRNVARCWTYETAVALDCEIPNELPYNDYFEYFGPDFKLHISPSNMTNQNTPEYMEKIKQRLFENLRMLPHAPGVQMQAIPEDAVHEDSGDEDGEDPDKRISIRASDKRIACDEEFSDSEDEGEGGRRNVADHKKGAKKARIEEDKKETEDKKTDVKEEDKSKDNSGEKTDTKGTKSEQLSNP

The term IC50 denotes the concentration that gives 50% inhibition. In the case of `Cc1cc2c(cn1)CN(C(=O)Nc1nc(-c3cccnc3)ccc1N)C2` [Compound 12], the IC50 in data set [1] is 100 to 1000 nM; in data set [2], > 20000 nM.
The corresponding values for `CCc1ncc2c(n1)CN(C(=O)Nc1nc(-c3cccs3)ccc1N)C2` [Compound 3] are 100 to 1000 nM and 2000 nM.
For the compound `Cc1ncc(-c2ccc(N)c(NC(=O)N3Cc4cn(CC(F)F)nc4C3)n2)s1` [Compound 5], the IC50 in data set [1] was 100 to 1000 nM. The “% Control CFU-Mk Total @ 10 uM dose” value in data set [2] is listed as 36%.
`Cc1ncc2c(n1)CN(C(=O)Nc1nc(-c3ccc(F)cc3)ccc1N)C2` [Compound 14] showed an IC50 in data set [1] of 100 to 1000 nM. Also, the “% Control CFU-Mk Total @ 10 uM dose” value in data set [2] is given as 31%.
As to `Nc1ccc(-c2ccc(F)cc2)nc1NC(=O)N1Cc2cn(C3COC3)nc2C1` [Compound 1], in data set [1], the 50% inhibitory concentration (IC50) fell in the range of 100 to 1000 nM.
Turning to `CCc1ncc2c(n1)CN(C(=O)Nc1nc(-c3ccc(F)cc3)ccc1N)C2` [Compound 17], the half-inhibitory concentration (IC50) in data set [1] fell in the range of 1000 to 1500 nM. Further, the “% Control CFU-Mk Total @ 10 uM dose” value in data set [2] was 28%.
As to `CCc1cc2c(cn1)CN(C(=O)Nc1nc(-c3cccnc3)ccc1N)C2` [Compound 8], the IC50 in data set [1] was 100 to 1000 nM.
As for `COCCn1cc2c(n1)CN(C(=O)Nc1nc(-c3ccc(F)cc3F)ccc1N)C2` [Compound 9], the IC50 in data set [1] is 100 to 1000 nM; in data set [2], 10800 nM.
`Cc1ncc2c(n1)CN(C(=O)Nc1nc(-c3ccc(F)s3)ccc1N)C2` [Compound 2]: the half-maximal inhibitory concentration (IC50) in data set [1] is 1000 to 1500 nM; in data set [2], 2000 nM.
